Holding throughout (design): scale not given: the % may be the effect or the level left
For assay [1], the species on record is Homo sapiens. Nature of the assay: Inhibition of human non-glycosylated PAI1 R76A mutant using urokinase type plasminogen activator substrate assessed as change in IC50 value relative to wild type by direct chromogenic assay.
The species entered for assay [2] is Homo sapiens. Nature of the assay: Inhibition of human non-glycosylated PAI1 Y79A mutant using urokinase type plasminogen activator substrate assessed as change in IC50 value relative to wild type by direct chromogenic assay.
For assay [3], the species on record is Homo sapiens. Description: Inhibition of human non-glycosylated PAI1 K80A mutant using urokinase type plasminogen activator substrate assessed as change in IC50 value relative to wild type by direct chromogenic assay.
For assay [4], the species on record is Homo sapiens. Description: Inhibition of human non-glycosylated PAI1 T93A mutant using urokinase type plasminogen activator substrate assessed as change in IC50 value relative to wild type by direct chromogenic assay.
The species named for assay [5] is Homo sapiens. Nature of the assay: Inhibition of human non-glycosylated PAI1 T94A mutant using urokinase type plasminogen activator substrate assessed as change in IC50 value relative to wild type by direct chromogenic assay.
The species named for assay [6] is Homo sapiens. Nature of the assay: Inhibition of human non-glycosylated PAI1 D95A mutant using urokinase type plasminogen activator substrate assessed as change in IC50 value relative to wild type by direct chromogenic assay.
Assay [7] is filed under the species Homo sapiens. Description: Inhibition of human non-glycosylated PAI1 R118A mutant using urokinase type plasminogen activator substrate assessed as change in IC50 value relative to wild type by direct chromogenic assay.
The species named for assay [8] is Homo sapiens. Nature of the assay: Inhibition of human non-glycosylated PAI1 T120A mutant using urokinase type plasminogen activator substrate assessed as change in IC50 value relative to wild type by direct chromogenic assay.
The species named for assay [9] is Homo sapiens. Description: Inhibition of human non-glycosylated PAI1 K122A mutant using urokinase type plasminogen activator substrate assessed as change in IC50 value relative to wild type by direct chromogenic assay.
The species named for assay [10] is Homo sapiens. Description: Inhibition of human non-glycosylated PAI1 F114A mutant using urokinase type plasminogen activator substrate assessed as change in IC50 value relative to wild type by direct chromogenic assay.
The species named for assay [11] is Homo sapiens. Description: Inhibition of human non-glycosylated PAI1 H143A mutant using urokinase type plasminogen activator substrate assessed as change in IC50 value relative to wild type by direct chromogenic assay.

For `O=C(O)C(=O)c1cn(Cc2ccccc2)c2ccc(-c3ccc(OC(F)(F)F)cc3)cc12`, the Activity in [1] amounted to 48%; in assay [2], 28%; in assay [3], 14%; in assay [4], 27%; in assay [5], 54%; in [6] it was 58%. Further, the Activity in assay [7] is 7%; in assay [8], -21%; in assay [9], -25%; in assay [10], 3%; in assay [11] it was -14%.

The record behind these values is ChEMBL document CHEMBL1156441, “Mechanism of inactivation of plasminogen activator inhibitor-1 by a small molecule inhibitor” (J Biol Chem, 2007).
